Reference: patent US11911393B2, “Non-catalytic substrate-selective p38alpha-specific MAPK inhibitors with endothelial-stabilizing and anti-inflammatory activity, and methods of use thereof” (University of Maryland, Baltimore, priority 2016, dated 2024)

Tested on: TNFα-induced gene expression in HMVECLs
Test: RNASeq of TNFα-induced gene expression
Format: cell-based, human
Conditions: 100 μM UM101, 10 μM SB203580

C[S+]([O-])c1ccc(-c2nc(-c3ccncc3)c(-c3ccc(F)cc3)[nH]2)cc1 (centres unmarked) [SB203580, reference compound]
bin (gene expression response pattern): MAP2K6 (HMVECLs, TNFα): 1 | bin (gene expression response pattern): MMP9 (HMVECLs, TNFα): 3 | bin (gene expression response pattern): MUC4 (HMVECLs, TNFα): 3 | bin (gene expression response pattern): NEURL3 (HMVECLs, TNFα): 5 | bin (gene expression response pattern): NIPAL4 (HMVECLs, TNFα): 5 | bin (gene expression response pattern): NOG (HMVECLs, TNFα): 5 | bin (gene expression response pattern): NUAK1 (HMVECLs, TNFα): 5 | bin (gene expression response pattern): NUAK2 (HMVECLs, TNFα): 5 | bin (gene expression response pattern): OR2I1P (HMVECLs, TNFα): 3 | bin (gene expression response pattern): PALMD (HMVECLs, TNFα): 5 | bin (gene expression response pattern): PCDH17 (HMVECLs, TNFα): 5 | bin (gene expression response pattern): PCLO (HMVECLs, TNFα): 5 | bin (gene expression response pattern): PDE7B (HMVECLs, TNFα): 5 | bin (gene expression response pattern): PDK4 (HMVECLs, TNFα): 5 | bin (gene expression response pattern): PGF (HMVECLs, TNFα): 5 | bin (gene expression response pattern): PLA1A (HMVECLs, TNFα): 3 | bin (gene expression response pattern): PRICKLE1 (HMVECLs, TNFα): 5 | bin (gene expression response pattern): PRKCH (HMVECLs, TNFα): 5 | bin (gene expression response pattern): PRRG4 (HMVECLs, TNFα): 3 | bin (gene expression response pattern): PTGER4P2 (HMVECLs, TNFα): 5 | bin (gene expression response pattern): RASSF9 (HMVECLs, TNFα): 5 | bin (gene expression response pattern): RGCC (HMVECLs, TNFα): 5 | bin (gene expression response pattern): RIMS1 (HMVECLs, TNFα): 5 | bin (gene expression response pattern): RN7SL471P (HMVECLs, TNFα): 5 | bin (gene expression response pattern): RNF152 (HMVECLs, TNFα): 5 | bin (gene expression response pattern): RP11-197M22.2 (HMVECLs, TNFα): 5 | bin (gene expression response pattern): RP11-244F12.3 (HMVECLs, TNFα): 5 | bin (gene expression response pattern): RP11-284F21.7 (HMVECLs, TNFα): 1 | bin (gene expression response pattern): RP11-309L24.2 (HMVECLs, TNFα): 5 | bin (gene expression response pattern): RP11-490B18.5 (HMVECLs, TNFα): 3 | bin (gene expression response pattern): RP11-758N13.1 (HMVECLs, TNFα): 5 | bin (gene expression response pattern): RPA4 (HMVECLs, TNFα): 5 | bin (gene expression response pattern): SEMA6D (HMVECLs, TNFα): 1 | bin (gene expression response pattern): SERTAD4 (HMVECLs, TNFα): 5 | bin (gene expression response pattern): SGK223 (HMVECLs, TNFα): 5 | bin (gene expression response pattern): SH3RF2 (HMVECLs, TNFα): 5 | bin (gene expression response pattern): SH3TC2 (HMVECLs, TNFα): 5 | bin (gene expression response pattern): SLC15A3 (HMVECLs, TNFα): 3 | bin (gene expression response pattern): SLC16A6 (HMVECLs, TNFα): 5 | bin (gene expression response pattern): SLC45A3 (HMVECLs, TNFα): 5 | bin (gene expression response pattern): SLCO4A1 (HMVECLs, TNFα): 5 | bin (gene expression response pattern): SMAD6 (HMVECLs, TNFα): 5 | bin (gene expression response pattern): SNORD12B (HMVECLs, TNFα): 3 | bin (gene expression response pattern): SOX18 (HMVECLs, TNFα): 5 | bin (gene expression response pattern): SSTR1 (HMVECLs, TNFα): 5 | bin (gene expression response pattern): TCHH (HMVECLs, TNFα): 3 | bin (gene expression response pattern): TGFA (HMVECLs, TNFα): 5 | bin (gene expression response pattern): TLR7 (HMVECLs, TNFα): 2 | bin (gene expression response pattern): TRIL (HMVECLs, TNFα): 1 | bin (gene expression response pattern): TRPC6 (HMVECLs, TNFα): 5 | bin (gene expression response pattern): TSLP (HMVECLs, TNFα): 3 | bin (gene expression response pattern): UNC5B-AS1 (HMVECLs, TNFα): 5 | bin (gene expression response pattern): VAV3 (HMVECLs, TNFα): 5 | bin (gene expression response pattern): VDR (HMVECLs, TNFα): 3 | bin (gene expression response pattern): Y_RNA (HMVECLs, TNFα): 3 | bin (gene expression response pattern): ZNF365 (HMVECLs, TNFα): 5 | bin (gene expression response pattern): ZNF467 (HMVECLs, TNFα): 5 | bin (gene expression response pattern): ZNF521 (HMVECLs, TNFα): 5 | bin (gene expression response pattern) (HPCA (ENSG00000121905)): 8 | bin (gene expression response pattern) (IFIH1 (ENSG00000115267)): 7 | bin (gene expression response pattern) (IL1A (ENSG00000115008)): 8 | bin (gene expression response pattern) (IL3RA (ENSG00000185291)): 7 | bin (gene expression response pattern) (IL12RB1 (ENSG00000096996)): 8 | bin (gene expression response pattern) (IRF8 (ENSG00000140968)): 7 | bin (gene expression response pattern) (KYNU (ENSG00000115919)): 7 | bin (gene expression response pattern) (LINC00092 (ENSG00000225194)): 7 | bin (gene expression response pattern) (LST1 (ENSG00000204482)): 7 | bin (gene expression response pattern) (LYPD6 (ENSG00000187123)): 7 | bin (gene expression response pattern) (MIR126 (ENSG00000199161)): 7 | bin (gene expression response pattern) (MOB3C (ENSG00000142961)): 7 | bin (gene expression response pattern) (MRGPRX4 (ENSG00000179817)): 7 | bin (gene expression response pattern) (NKD2 (ENSG00000145506)): 8 | bin (gene expression response pattern) (NKX3-1 (ENSG00000167034)): 8 | bin (gene expression response pattern) (OLR1 (ENSG00000173391)): 8 | bin (gene expression response pattern) (P2RX2 (ENSG00000187848)): 8 | bin (gene expression response pattern) (PARP14 (ENSG00000173193)): 7 | bin (gene expression response pattern) (PEXHG (ENSG00000104883)): 7 | bin (gene expression response pattern) (PRRT2 (ENSG00000167371)): 7 | bin (gene expression response pattern) (RCAN1 (ENSG00000159200)): 7 | bin (gene expression response pattern) (RND1 (ENSG00000172602)): 8 | bin (gene expression response pattern) (RP3-416H24.1 (ENSG00000257671)): 8 | bin (gene expression response pattern) (RP4-607I7.1 (ENSG00000255521)): 7 | bin (gene expression response pattern) (RP4-681N20.5 (ENSG00000275582)): 8 | bin (gene expression response pattern) (RP4-734G22.3 (ENSG00000272078)): 7 | bin (gene expression response pattern) (RP11-79H23.3 (ENSG00000261618)): 7 | bin (gene expression response pattern) (RP11-158I3.3 (ENSG00000269826)): 8 | bin (gene expression response pattern) (RP11-283G6.5 (ENSG00000255750)): 7 | bin (gene expression response pattern) (RP11-342K2.1 (ENSG00000279133)): 8 | bin (gene expression response pattern) (RP11-638I2.9 (ENSG00000258521)): 8 | bin (gene expression response pattern) (RP11-875011.2 (ENSG00000246130)): 7 | bin (gene expression response pattern) (SCUBE2 (ENSG00000175356)): 7 | bin (gene expression response pattern) (SFMBT2 (ENSG00000198879)): 7 | bin (gene expression response pattern) (SLC19A3 (ENSG00000135917)): 7 | bin (gene expression response pattern) (SLC26A9 (ENSG00000174502)): 8 | bin (gene expression response pattern) (SLC52A3 (ENSG00000101276)): 7 | bin (gene expression response pattern) (TMEM52B (ENSG00000165685)): 8 | bin (gene expression response pattern) (TNF (ENSG00000232810)): 8 | bin (gene expression response pattern) (TNIP3 (ENSG00000050730)): 7 | bin (gene expression response pattern) (TOX (ENSG00000198846)): 8 | bin (gene expression response pattern) (TP63 (ENSG00000073282)): 8 | bin (gene expression response pattern) (VCAM1 (ENSG00000162692)): 7
